# Patent US20050037923A1, “Herbicidal mixture based on 7-pyrazolybenzoxazoles” (BASF Aktiengesellschaft, priority 2001, published 2005)
# Experiments:
# [1] = test system: ABUTH; test: Greenhouse test, post-emergence herbicidal action; type: in vivo, velvet leaf; conditions: 21 days
# Excerpt: (§1) For the post-emergence treatment, the test plants were first grown to a height of 3 to 20 cm, depending on the plant habit, and only then treated. Here, the herbicidal compositions were suspended or emulsified in water as distribution medium and sprayed using finely distributing nozzles.
# (§2) The respective components A and B and/or C were formulated as 10% by weight strength emulsion concentrate and introduced to the spray liquor with the amount of solvent system used for applying the active compound. In the examples, the solvent used was water.
# (§3) The test period extended over 21 days. During this time, the plants were tended, and their response to the treatments with active compound was evaluated.
# (§4) The evaluation for the damage caused by the chemical compositions was carried out using a scale from 0 to 100%, compared to the untreated control plants. Here, 0 means no damage and 100 means complete destruction of the plants.
# (§5) In the examples below, the value E which is to be expected if the activity of the individual active compounds is just additive was calculated using the method of S. R. Colby (1967) “Calculating synergistic and antagonistic responses of herbicide combinations”, Weeds 15, p. 22 ff. E=X+Y—(X·Y/100) where • X=effect in percent using active compound A at an application rate a; • Y=effect in percent using active compound B at an application rate b; • E=expected effect (in %) of A+B at application rates a+b.
# (§6) The plants used in the greenhouse experiments were of the following species: […]
# [2] = test system: AVEFA; test: Greenhouse test, post-emergence herbicidal action; type: in vivo, wild oat
# Excerpt: as §1, §2, §3, §4, §5, §6
# [3] = test system: BIDPI; test: Greenhouse test, post-emergence herbicidal action; type: in vivo, hairy beggarticks
# Excerpt: as §1, §2, §3, §4, §5, §6
# [4] = test system: BRAPL; test: Greenhouse test, post-emergence herbicidal action; type: in vivo, alexandergrass
# Excerpt: as §1, §2, §3, §4, §5, §6
# [5] = test system: COMBE; test: Greenhouse test, post-emergence herbicidal action; type: in vivo, tropical spiderwort; conditions: 21 days
# Excerpt: as §1, §2, §3, §4, §5, §6
# [6] = test system: MATIN; test: Greenhouse test, post-emergence herbicidal action; type: in vivo, false chamomille
# Excerpt: as §1, §2, §3, §4, §5, §6
# [7] = test system: POAAN; test: Greenhouse test, post-emergence herbicidal action; type: in vivo, annual bluegrass
# Excerpt: as §1, §2, §3, §4, §5, §6
# [8] = test system: POLPE; test: Greenhouse test, post-emergence herbicidal action; type: in vivo, ladysthumb
# Excerpt: as §1, §2, §3, §4, §5, §6
# [9] = test system: SETFA; test: Greenhouse test, post-emergence herbicidal action; type: in vivo, giant foxtail; conditions: 21 days
# Excerpt: as §1, §2, §3, §4, §5, §6
# [10] = test system: CHEAL; test: Greenhouse test, pre-emergence herbicidal action; type: in vivo, lambsquarters
# Excerpt: (§7) For the pre-emergence treatment, the test plants were sown is pots 1-2 days later, i.e. prior to germination, the pots were sprayed with the finely distributed herbicidal compositions, which had been suspended in water.
# as §2, §3, §4, §5, §6
# [11] = test system: ECHCG; test: Greenhouse test, pre-emergence herbicidal action; type: in vivo, barnyardgrass
# Excerpt: as §7, §2, §3, §4, §5, §6
# [12] = test system: THLAR; test: Greenhouse test, pre-emergence herbicidal action; type: in vivo, fanweed
# Excerpt: as §7, §2, §3, §4, §5, §6
# [13] = test system: ECHCG; test: Greenhouse test, post-emergence herbicidal action; type: in vivo, barnyardgrass
# Excerpt: as §1, §2, §3, §4, §5, §6
# [14] = test system: GALAP; test: Greenhouse test, post-emergence herbicidal action; type: in vivo, catchweed bedstraw; conditions: 21 days
# Excerpt: as §1, §2, §3, §4, §5, §6
# [15] = test system: SETVI; test: Greenhouse test, post-emergence herbicidal action; type: in vivo, green foxtail
# Excerpt: as §1, §2, §3, §4, §5, §6
# [16] = test system: VERSS; test: Greenhouse test, post-emergence herbicidal action; type: in vivo, speadwell
# Excerpt: as §1, §2, §3, §4, §5, §6
# [17] = test system: ABUTH; test: Greenhouse test, pre-emergence herbicidal action; type: in vivo, velvet leaf
# Excerpt: as §7, §2, §3, §4, §5, §6
# [18] = test system: BIDPI; test: Greenhouse test, pre-emergence herbicidal action; type: in vivo, hairy beggarticks
# Excerpt: as §7, §2, §3, §4, §5, §6
# [19] = test system: SORHA; test: Greenhouse test, pre-emergence herbicidal action; type: in vivo, johnsongrass
# Excerpt: as §7, §2, §3, §4, §5, §6
# [20] = test system: crop plants; test: Safener action, pre-emergence, damage to crop plants; type: in vivo; conditions: 21 days
# Excerpt: as §7, §2, §4
# As in the example above, test plants were grown, treated with the mixture according to the invention by the Pre-emergence method and, after a test period of 21 days, evaluated using a scale from 0 to 100% damage. The test plants used were crop plants.
# A safener action is present if the damage to the crop plant caused by using a mixture according to the invention which comprises a safener C) is less than the damage caused when active compound A or active compounds A and B are used without safener.
# [21] = application rate 1.95 g/ha, 21 days
# [22] = application rate 3.91 g/ha, 21 days
# [23] = application rate 1.95 g/ha (Example 28)
# [24] = application rate 3.91 g/ha (Example 28)
# [25] = application rate 0.98 g/ha (Example 24)
# [26] = application rate 1.95 g/ha (Example 24)
# [27] = application rate 62.5 g/ha (Example 23)
structure (smiles),measurement,setting,value
CCc1nc2c(Cl)cc(F)c(-c3nn(C)c(OC(F)F)c3Cl)c2o1 [I.9],"Herbicidal action against ABUTH, Found",[1]; application rate 0.49 g/ha,0%
same,"Herbicidal action against ABUTH, Found",[1]; application rate 0.98 g/ha,70%
same,"Herbicidal action against AVEFA, Found",[2]; application rate 1.95 g/ha (Example 15),10%
same,"Herbicidal action against AVEFA, Found",[2]; [21],10%
same,"Herbicidal action against AVEFA, Found",[2]; application rate 3.91 g/ha (Example 15),20%
same,"Herbicidal action against BIDPI, Found",[3]; [21],0%
same,"Herbicidal action against BIDPI, Found",[3]; [22],40%
same,"Herbicidal action against BRAPL, Found",[4]; application rate 3.91 g/ha (Example 17),65%
same,"Herbicidal action against BRAPL, Found",[4]; application rate 7.81 g/ha (Example 17),85%
same,"Herbicidal action against COMBE, Found",[5]; application rate 0.98 g/ha,10%
same,"Herbicidal action against COMBE, Found",[5]; application rate 1.95 g/ha,10%
same,"Herbicidal action against MATIN, Found",[6]; application rate 1.95 g/ha,20%
same,"Herbicidal action against MATIN, Found",[6]; application rate 3.91 g/ha,20%
same,"Herbicidal action against POAAN, Found",[7]; application rate 1.95 g/ha,10%
same,"Herbicidal action against POAAN, Found",[7]; application rate 3.91 g/ha,10%
same,"Herbicidal action against POLPE, Found","[8]; application rate 0.49 g/ha, 21 days",5%
same,"Herbicidal action against POLPE, Found","[8]; application rate 0.98 g/ha, 21 days",10%
same,"Herbicidal action against POLPE, Found",[8]; [21],50%
same,"Herbicidal action against SETFA, Found",[9]; application rate 1.95 g/ha,45%
same,"Herbicidal action against CHEAL, Found",[10]; application rate 7.81 g/ha,75%
same,"Herbicidal action against CHEAL, Found",[10]; application rate 15.63 g/ha,75%
same,"Herbicidal action against ECHCG, Found",[11]; application rate 7.81 g/ha,10%
same,"Herbicidal action against ECHCG, Found",[11]; application rate 15.63 g/ha,35%
same,"Herbicidal action against THLAR, Found",[12]; application rate 15.63 g/ha,80%
same,"Herbicidal action against THLAR, Found",[12]; application rate 31.25 g/ha,80%
CCc1nc2c(Cl)cc(Cl)c(-c3nn(C)c(OC(F)F)c3Br)c2o1 [I.12],"Herbicidal action against AVEFA, Found",[2]; application rate 1.95 g/ha,40%
same,"Herbicidal action against AVEFA, Found",[2]; application rate 1.95 g/ha (Example 16),20%
same,"Herbicidal action against AVEFA, Found",[2]; [23],20%
same,"Herbicidal action against AVEFA, Found",[2]; [21],20%
same,"Herbicidal action against AVEFA, Found",[2]; application rate 3.91 g/ha,40%
same,"Herbicidal action against AVEFA, Found",[2]; application rate 3.91 g/ha (Example 16),30%
same,"Herbicidal action against AVEFA, Found",[2]; [24],20%
same,"Herbicidal action against AVEFA, Found",[2]; [22],30%
same,"Herbicidal action against BIDPI, Found",[3]; application rate 1.95 g/ha,65%
same,"Herbicidal action against BIDPI, Found",[3]; application rate 3.91 g/ha,65%
same,"Herbicidal action against BRAPL, Found",[4]; [23],50%
same,"Herbicidal action against BRAPL, Found",[4]; application rate 3.91 g/ha (Example 18),60%
same,"Herbicidal action against BRAPL, Found",[4]; [24],50%
same,"Herbicidal action against BRAPL, Found",[4]; application rate 7.81 g/ha (Example 18),75%
same,"Herbicidal action against ECHCG, Found",[13]; application rate 0.49 g/ha,0%
same,"Herbicidal action against ECHCG, Found",[13]; application rate 0.98 g/ha,0%
same,"Herbicidal action against ECHCG, Found",[13]; [25],0%
same,"Herbicidal action against ECHCG, Found",[13]; [26],0%
same,"Herbicidal action against ECHCG, Found",[13]; [21],50%
same,"Herbicidal action against ECHCG, Found",[13]; [22],50%
same,"Herbicidal action against GALAP, Found",[14]; application rate 0.49 g/ha,15%
same,"Herbicidal action against GALAP, Found",[14]; application rate 0.98 g/ha,15%
same,"Herbicidal action against POLPE, Found",[8]; application rate 0.49 g/ha,15%
same,"Herbicidal action against POLPE, Found",[8]; application rate 0.98 g/ha,15%
same,"Herbicidal action against POLPE, Found",[8]; [25],15%
same,"Herbicidal action against POLPE, Found",[8]; [26],60%
same,"Herbicidal action against POLPE, Found",[8]; [21],60%
same,"Herbicidal action against POLPE, Found",[8]; [22],65%
same,"Herbicidal action against SETFA, Found",[9]; application rate 1.95 g/ha,50%
same,"Herbicidal action against SETFA, Found",[9]; application rate 3.91 g/ha,65%
same,"Herbicidal action against SETVI, Found",[15]; application rate 0.98 g/ha,40%
same,"Herbicidal action against SETVI, Found",[15]; application rate 1.95 g/ha,50%
same,"Herbicidal action against VERSS, Found",[16]; application rate 0.49 g/ha,0%
same,"Herbicidal action against VERSS, Found",[16]; application rate 0.98 g/ha,50%
same,"Herbicidal action against ABUTH, Found",[17]; application rate 62.5 g/ha,60%
same,"Herbicidal action against ABUTH, Found",[17]; application rate 125 g/ha,60%
same,"Herbicidal action against BIDPI, Found",[18]; application rate 62.5 g/ha,30%
same,"Herbicidal action against BIDPI, Found",[18]; application rate 125 g/ha,30%
same,"Herbicidal action against ECHCG, Found",[11]; application rate 31.25 g/ha,0%
same,"Herbicidal action against ECHCG, Found",[11]; [27],0%
same,"Herbicidal action against SORHA, Found",[19]; application rate 31.25 g/ha,30%
same,"Herbicidal action against SORHA, Found",[19]; application rate 62.5 g/ha,40%
same,"Damage to the crop plant corn (ZEAMX), cultivar Magister",[20]; application rate 62.5 g/ha,38%
same,"Damage to the crop plant corn (ZEAMX), cultivar P3751",[20]; application rate 62.5 g/ha,28%
same,"Damage to the crop plant corn (ZEAMX), cultivar Magister",[20]; application rate 125 g/ha,35%
same,"Damage to the crop plant corn (ZEAMX), cultivar P3751",[20]; application rate 125 g/ha,35%
COC[C@H](C)N(C(=O)CCl)c1c(C)csc1C [dimethenamide-P],"Herbicidal action against CHEAL, Found",[10]; application rate 62.5 g/ha,10%
same,"Herbicidal action against ECHCG, Found",[11]; application rate 62.5 g/ha (Example 22),85%
same,"Herbicidal action against ECHCG, Found",[11]; [27],85%
same,"Herbicidal action against SORHA, Found",[19]; application rate 62.5 g/ha,50%
CC(C)N(C(=O)COc1nnc(C(F)(F)F)s1)c1ccc(F)cc1 [flufenacet],"Herbicidal action against MATIN, Found",[6]; application rate 250 g/ha,10%
same,"Herbicidal action against POAAN, Found",[7]; application rate 250 g/ha,0%
same,"Herbicidal action against VERSS, Found",[16]; application rate 250 g/ha,0%
CCC(CC)Nc1c([N+](=O)[O-])cc(C)c(C)c1[N+](=O)[O-] [pendimethalin],"Herbicidal action against THLAR, Found",[12]; application rate 250 g/ha,40%
